Source: patent publication US10519177B2, “Heterocyclic compounds and uses thereof” (Plexxikon Inc., priority 2013, dated 2019)
Where two headings read alike, the source gives them in different places.

What was measured:
BRD4-BD12 (1-477) = BRD4-BD12 (1-477) (Homo sapiens (Human), UniProt O60885); test: Alphascreen binding assay BRD4-BD12; details: BRD4(1 2) H4; read-out: Biochemical activity (IC50 μM) BRD4(1 2) H4
Method in brief: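 First, compound was preincubated 1 h at room temperature with the His-tagged BRD4 protein (BD1 44-164 or tandem BD12 1-477) and acetylated H4 peptide. Next, donor and acceptor beads were added at 7.5 μg/ml final. After 30 min, AlphaScreen emission was recorded.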

MV-4-11 cells = test: Oncology cell growth assay MV-4-11 (CellTiter Glo); type: cell-based; details: Homo sapiens, MV4-11, 72 h, read-out: Cell activity (IC50 μM) MV-4-11 3d-Growth
Method in brief: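 MV-4-11 AML cells (MLL-AF4), 3000 per well, exposed to 8-point 1:3 compound titration from 10 μM top concentration (0.2% DMSO) for 72 h. Viability by CellTiter Glo luminescence, normalized to DMSO controls; pIC50 from four-parameter curve fit.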

bromodomain = test: at least one of the bromodomain cell assays of Example 57; type: cell-based; details: at least one of the bromodomain cell assays described in Example 57; read-out: IC50 in at least one of the bromodomain cell assays

Row | SMILES | IC50 (BRD4-BD12 (1-477)) | IC50 (MV-4-11 cells) | IC50 (bromodomain) | IC50 (MV-4-11 cells; MV-4-11, 3d growth)
1 | CNC(=O)c1ccc(-c2cn(CC3CCC(F)(F)CC3)c3cc(-c4c(C)noc4C)cnc23)cc1 [P-0403, 4-[1-[(4,4-difluorocyclohexyl)methyl]-6-(3,5-dimethylisoxazol-4-yl)pyrrolo[3,2-b]pyridin-3-yl]-N-methyl-benzamide] | < 1 µM | < 1 µM | < 10 µM | –
2 | Cc1noc(C)c1-c1cnc2c(-c3ccc(C4(C(=O)O)CC4)cc3)cn(CC3CCC(F)(F)CC3)c2c1 [P-0412, 1-[4-[1-[(4,4-difluorocyclohexyl)methyl]-6-(3,5-dimethylisoxazol-4-yl)pyrrolo[3,2-b]pyridin-3-yl]phenyl]cyclopropanecarboxylic acid] | < 1 µM | < 1 µM | < 10 µM | –
3 | Cc1ccc(-c2cn(CC3CCC(F)(F)CC3)c3cc(-c4c(C)noc4C)cnc23)cc1C(=O)O [P-0415, 5-[1-[(4,4-difluorocyclohexyl)methyl]-6-(3,5-dimethylisoxazol-4-yl)pyrrolo[3,2-b]pyridin-3-yl]-2-methyl-benzoic acid] | < 1 µM | < 1 µM | < 10 µM | –
4 | Cc1noc(C)c1-c1cnc2c(I)cn([C@@H](C)c3ccccn3)c2c1 [P-0572, 4-[3-iodo-1-[(1S)-1-(2-pyridyl)ethyl]pyrrolo[3,2-b]pyridin-6-yl]-3,5-dimethyl-isoxazole] | < 1 µM | – | < 10 µM | < 1 µM
5 | [2H]C([2H])(C1CCC(F)(F)CC1)n1cc(-c2ccc(C(=O)O)cc2)c2ncc(-c3c(C)noc3C)cc21 [P-0363, 4-[1-[dideuterio-(4,4-difluorocyclohexyl)methyl]-6-(3,5-dimethylisoxazol-4-yl)pyrrolo[3,2-b]pyridin-3-yl]benzoic acid] | < 1 µM | < 1 µM | < 10 µM | –
6 | CCNS(=O)(=O)c1ccc(-c2cn([C@@H](C)c3ccccn3)c3cc(-c4c(C)noc4C)cnc23)cc1 [P-0556, 4-[6-(3,5-dimethylisoxazol-4-yl)-1-[(1S)-1-(2-pyridyl)ethyl]pyrrolo[3,2-b]pyridin-3-yl]-N-ethyl-benzenesulfonamide] | < 1 µM | – | < 10 µM | < 1 µM
7 | Cc1noc(C)c1-c1cnc2c(-c3ccc(C(=O)O)cc3)cn(CC3(F)CCCCC3)c2c1 [P-0367, 4-[6-(3,5-dimethylisoxazol-4-yl)-1-[(1-fluorocyclohexyl)methyl]pyrrolo[3,2-b]pyridin-3-yl]benzoic acid] | < 1 µM | < 1 µM | < 10 µM | –
8 | COc1ncc(-c2cnc3c(-c4cnn(CC(F)(F)F)c4)cn(CC4CCC(F)(F)CC4)c3c2)s1 [P-0452, 5-[1-[(4,4-difluorocyclohexyl)methyl]-3-[1-(2,2,2-trifluoroethyl)pyrazol-4-yl]pyrrolo[3,2-b]pyridin-6-yl]-2-methoxy-thiazole] | < 1 µM | – | < 10 µM | 1 to 10 µM
9 | Cc1noc(C)c1-c1cnc2c(-c3ccc(C(=O)O)c(Cl)c3)cn(CC3CCC(F)(F)CC3)c2c1 [P-0535, 2-chloro-4-[1-[(4,4-difluorocyclohexyl)methyl]-6-(3,5-dimethylisoxazol-4-yl)pyrrolo[3,2-b]pyridin-3-yl]benzoic acid] | < 1 µM | – | < 10 µM | < 1 µM
10 | Cc1noc(C)c1-c1cnc2c(-c3ccc(C(=O)O)c(F)c3)cn(CC3(F)CCCCC3)c2c1 [P-0469, 4-[6-(3,5-dimethylisoxazol-4-yl)-1-[(1-fluorocyclohexyl)methyl]pyrrolo[3,2-b]pyridin-3-yl]-2-fluoro-benzoic acid] | < 1 µM | – | < 10 µM | < 1 µM
11 | Cc1noc(C)c1-c1cnc2c(I)cn(C(c3ccccn3)c3ccccn3)c2c1 [P-0575, 4-[1-[bis(2-pyridyl)methyl]-3-iodo-pyrrolo[3,2-b]pyridin-6-yl]-3,5-dimethyl-isoxazole] | < 1 µM | – | < 10 µM | < 1 µM
12 | Cc1ccc(-c2cn(CC3(C)CCOCC3)c3cc(-c4c(C)noc4C)cnc23)cc1 [P-0794, 3,5-dimethyl-4-[1-[(4-methyltetrahydropyran-4-yl)methyl]-3-(p-tolyl)pyrrolo[3,2-b]pyridin-6-yl]isoxazole] | < 1 µM | – | < 10 µM | 1 to 10 µM
13 | Cc1noc(C)c1-c1cnc2c(c1)c(CC1CCC(F)(F)CC1)cn2-c1ncc(C(=O)O)cn1 [P-0443, 2-[3-[(4,4-difluorocyclohexyl)methyl]-5-(3,5-dimethylisoxazol-4-yl)pyrrolo[2,3-b]pyridin-1-yl]pyrimidine-5-carboxylic acid] | < 1 µM | – | < 10 µM | 1 to 10 µM
14 | Cc1noc(C)c1-c1cnc2c(-c3cnn(CC(F)(F)F)c3)cn(CC3CCC(F)(F)CC3)c2c1 [P-0253, 4-[1[(4,4-difluorocyclohexyl)methyl]-3-[1-(2,2,2-trifluoroethyl)pyrazol-4-yl]pyrrolo[3,2-b]pyridin-6-yl]-3,5-dimethyl-isoxazole] | < 1 µM | < 1 µM | < 10 µM | –
15 | Cc1noc(C)c1-c1cnc2c(-c3ccc(CC(=O)O)cc3)cn(CC3CCCCCC3)c2c1 [P-0587, 2-[4-[1-(cycloheptylmethyl)-6-(3,5-dimethylisoxazol-4-yl)pyrrolo[3,2-b]pyridin-3-yl]phenyl]acetic acid] | < 1 µM | – | < 10 µM | < 1 µM
16 | Cc1noc(C)c1-c1cnc2c(-c3ccc4c(c3)CNC4=O)cn(CC3(F)CCCCC3)c2c1 [P-0505, 5-[6-(3,5-dimethylisoxazol-4-yl)-1-[(1-fluorocyclohexyl)methyl]pyrrolo[3,2-b]pyridin-3-yl]isoindolin-1-one] | < 1 µM | – | < 10 µM | < 1 µM
17 | COc1cc(-c2cn(CC3(F)CCCCC3)c3cc(-c4c(C)noc4C)cnc23)ccc1C(=O)O [P-0504, 4-[6-(3,5-dimethylisoxazol-4-yl)-1-[(1-fluorocyclohexyl)methyl]pyrrolo[3,2-b]pyridin-3-yl]-2-methoxy-benzoic acid] | < 1 µM | – | < 10 µM | < 1 µM
18 | COC(=O)c1ccc(-c2cn(Cc3ccccn3)c3cc(-c4c(C)noc4C)cnc23)cc1 [P-0435, methyl 4-[6-(3,5-dimethylisoxazol-4-yl)-1-(2-pyridylmethyl)pyrrolo[3,2-b]pyridin-3-yl]benzoate] | < 1 µM | – | < 10 µM | < 1 µM
19 | [2H]C([2H])(C1CCC(F)(F)CC1)n1cc(-c2cnn(C)c2C)c2ncc(-c3c(C)noc3C)cc21 [P-0338, 4-[1-[dideuterio-(4,4-difluorocyclohexyl)methyl]-3-(1,5-dimethylpyrazol-4-yl)pyrrolo[3,2-b]pyridin-6-yl]-3,5-dimethyl-isoxazole] | < 1 µM | < 1 µM | < 10 µM | –
20 | Cc1noc(C)c1-c1cnc2c(-c3cnn(CC(F)(F)F)c3)cn(Cc3ccc(F)cc3)c2c1 [P-0366, 4-[1-[(4-fluorophenyl)methyl]-3-[l-(2,2,2-trifluoroethyl)pyrazol-4-yl]pyrrolo[3,2-b]pyridin-6-yl]-3,5-dimethyl-isoxazole] | < 1 µM | < 1 µM | < 10 µM | –
21 | Cc1noc(C)c1-c1cnc2c(-c3ccc(C#N)cc3)cn([C@@H](C)c3ccccn3)c2c1 [P-0573, 4-[6-(3,5-dimethylisoxazol-4-yl)-1-[(1S)-1-(2-pyridyl)ethyl]pyrrolo[3,2-b]pyridin-3-yl]benzonitrile] | < 1 µM | – | < 10 µM | < 1 µM
22 | [2H]C([2H])(C1CCC(F)(F)CC1)n1cc(-c2cnc(N)nc2)c2ncc(-c3c(C)noc3C)cc21 [P-0348, 5-[1-[dideuterio-(4,4-difluorocyclohexyl)methyl]-6-(3,5-dimethylisoxazol-4-yl)pyrrolo[3,2-b]pyridin-3-yl]pyrimidin-2-amine] | < 1 µM | < 1 µM | < 10 µM | –
23 | Cc1noc(C)c1-c1cnc2c(-c3ccc(C(=O)O)cc3)cn(Cc3cccnn3)c2c1 [P-0540, 4-[6-(3,5-dimethylisoxazol-4-yl)-1-(pyridazin-3-ylmethyl)pyrrolo[3,2-b]pyridin-3-yl]benzoic acid] | < 1 µM | – | < 10 µM | < 1 µM
24 | Cc1noc(C)c1-c1cnc2c(-c3cn[nH]c3)cn(CC3CCC(F)(F)CC3)c2c1 [P-0392, 4-[1-[(4,4-difluorocyclohexyl)methyl]-3-(1H-pyrazol-4-yl)pyrrolo[3,2-b]pyridin-6-yl]-3,5-dimethyl-isoxazole] | < 1 µM | < 1 µM | < 10 µM | –
25 | Cc1noc(C)c1-c1cnc2c(-c3ccc(=O)n(C)c3)cn(CC3CCC(F)(F)CC3)c2c1 [P-0408, 5-[1-[(4,4-difluorocyclohexyl)methyl]-6-(3,5-dimethylisoxazol-4-yl)pyrrolo[3,2-b]pyridin-3-yl]-1-methyl-pyridin-2-one] | < 1 µM | < 1 µM | < 10 µM | –
26 | COC(=O)c1ccc(-c2cn(CC3CCC(F)(F)CC3)c3cc(-c4c(C)noc4C)cnc23)cn1 [P-0418, methyl 5-[1-[(4,4-difluorocyclohexyl)methyl]-6-(3,5-dimethylisoxazol-4-yl)pyrrolo[3,2-b]pyridin-3-yl]pyridine-2-carboxylate] | < 1 µM | < 1 µM | < 10 µM | –
27 | Cc1onc(N)c1-c1cnc2c(-c3cnn(CC(F)(F)F)c3)cn(CC3CCC(F)(F)CC3)c2c1 [P-0368, 4-[1-[(4,4-difluorocyclohexyl)methyl]-3-[1-(2,2,2-trifluoroethyl)pyrazol-4-yl]pyrrolo[3,2-b]pyridin-6-yl]-5-methyl-isoxazol-3-amine] | < 1 µM | < 1 µM | < 10 µM | –
